US20190116833A1, “FEED ADDITIVE COMPOSITIONS” (priority 2017, published 2019)
Marks after values point to notes of the source that are not given here.

Columns and labels:
[1] = Post-weaning pig growth performance, SMBS vs SMBS + formulated yeast, 2-phase feeding (Example 7); assay type: in vivo
Text: A total of 972 pigs were used to determine the effect of sodium metabisulfite (SMBS) or SMBS plus formulated yeast on weanling pig growth performance. Upon arrival pigs were sorted to pens with 27 pigs per pen. Pigs were weighed on pen basis. Pens within block were randomly assigned to one of 3 dietary treatments (1 control and 2 experimental diets; Table 17) in a randomized complete block design. This will result in 12 pens for each treatment for evaluation of growth performance, fecal scores, and health status.
This experiment was conducted for approximately 22 days in a 2-phase feeding program (Table 18) immediately after weaning. Feed was provided through the FeedLogic® system allowing collection of feed intake data by pen.

[2] = Growth performance of early weaned pigs, SMBS titration (Example 3); assay type: in vivo; conditions: in words
Text: A total of 1,296 weanling pigs were used to determine the impact of […] on growth performance in 19 to 20 day old pigs. The ratio of same-sow source pens was equalized within treatments. The number of barrows and gilts was balanced within the pen (either 13 […] or 14 […] per pen). Upon arrival weanling pigs were sorted to pens (48 pens with 27 pigs per pen) and weighed as a complete pen of pigs. Pens within block were randomly assigned to one of 4 dietary treatments (1 control and 3 experimental diets; Table 6) in a randomized complete block design. Diets containing testing products were made by mixing the testing products into the basal diet (Table 7).
Pig weights were taken at placement and at the end of each diet phase (day 9 and 23). Feed weights were collected daily and the data was used to calculate ADG, ADFI and F/G for both diet phases and for the entire experimental period (23 days). Blood samples were on day 0 and 23 of the study from one barrow in each pen. Each pen was selected at the beginning of the study, identified with an ear tag, and sampled again at the end of the study. 8.5 mL blood was collected and allowed to clot on ice for at least 1.5 hr and centrifuged at 2,000×g for 13 min (4° C.). Fecal scores for each pen were collected on d 3, 5, 7, and 10 using the following scale: 0=none; 1=mild; 2=substantial; 3=severe (Citation 1: Marquardt et al., 1999).

With `O=S([O-])S(=O)(=O)[O-].[Na+].[Na+]` [SMBS, sodium metabisulfite] the ADFI ([1]; Phase 1 + 2, 22 days) was 0.78^cd lb/day, the ADG ([1]; Phase 1 + 2, 22 days) was 0.54 lb/day and the “ADG, change versus Control” value ([1]; Phase 1 + 2, 22 days) was “(+10.2%)^b”. The “F:G” value ([1]; Phase 1 + 2, 22 days) was 1.45, the “F:G, change versus Control” value ([1]; Phase 1 + 2, 22 days) was “(−6.5%)^b” and the Mortality ([1]; Phase 1 + 2, 22 days) was 0.6%. For the same compound, the Total removal ([1]; Phase 1 + 2, 22 days) was 2.2%, the ADFI ([1]; Phase 1, 8 days) was 0.46 lb/day and the ADG ([1]; Phase 1, 8 days) was 0.16^d lb/day. The “G:F” value ([1]; Phase 1, 8 days) was 0.35^d, the ADFI ([1]; Phase 2, 14 days) was 0.96^ab lb/day and the ADG ([1]; Phase 2, 14 days) was 0.76^b lb/day. For the same compound, the “F:G” value ([1]; Phase 2, 14 days) was 1.27^b, the “BW end of Phase 1” value ([1]; end of Phase 1, 8 days) was 13.4 lb and the “BW end of Phase 2” value ([1]; end of Phase 2, 14 days) was 24.1^b lb. For the same compound, the “Start BW” value ([1]; start of experiment (baseline)) was 11.8 lb, the “ADG and F/G” value ([2]; increasing levels, both phases of the study) was “linear (P<0.05) improvements” and the ADG ([2]; titrating from 0 to 10 lb/ton) was “Linear increase”. The F/G ([2]; titrating from 0 to 10 lb/ton) was “Linear decrease”.
